# ChEMBL document CHEMBL1201862, “PubChem BioAssay data set” (2004)
#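 The compound was tested at five concentrations on cells cultured in 96-well plates, with a 48-hour exposure period. At the GI50, growth is halved.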 Active and inactive are the calls of the source. Cut-off read from the data, not from the text of the source: active = GI50 up to about 1.1 µM and inactive = higher.
# Assays:
# Assay in all cases: growth of human tumour cells (NCI), 48 h
# ACHN = system: ACHN
# NCI-H23 = system: NCI-H23
# HL-60 = system: HL-60
# RXF 393 = system: RXF 393
# NCI-H522 = system: NCI-H522
# UO-31 = system: UO-31
# MOLT-4 = system: MOLT-4
# HCT-15 = system: HCT-15
# NCI-H460 = system: NCI-H460
# NCI/ADR-RES = system: NCI/ADR-RES
# HOP-62 = system: HOP-62
# Malme-3M = system: Malme-3M
# HT-29 = system: HT-29
# A549 = system: A549
# COLO 205 = system: COLO 205
# SW-620 = system: SW-620
# DU-145 = system: DU-145
# NCI-H226 = system: NCI-H226
# OVCAR-3 = system: OVCAR-3
# IGROV-1 = system: IGROV-1
# T47D = system: T47D
# SK-MEL-5 = system: SK-MEL-5
# MCF7 = system: MCF7
# RPMI-8226 = system: RPMI-8226
# HOP-92 = system: HOP-92
# Hs-578T = system: Hs-578T
# KM12 = system: KM12
# SN12C = system: SN12C
# SR = system: SR
# UACC-62 = system: UACC-62
# MDA-MB-435 = system: MDA-MB-435
# MDA-MB-231 = system: MDA-MB-231
# K562 = system: K562
# SF-295 = system: SF-295
# PC-3 = system: PC-3
# HCT-116 = system: HCT-116
# UACC-257 = system: UACC-257
# 786-0 = system: 786-0
# M14 = system: M14
# CCRF-CEM = system: CCRF-CEM
# SK-OV-3 = system: SK-OV-3
# SNB-19 = system: SNB-19
# SK-MEL-28 = system: SK-MEL-28
# SF-539 = system: SF-539
# EKVX = system: EKVX
# TK-10 = system: TK-10
# SF-268 = system: SF-268
# OVCAR-4 = system: OVCAR-4
# BT-549 = system: BT-549
# CAKI-1 = system: CAKI-1
# LOX IMVI = system: LOX IMVI
# A498 = system: A498
# HCC 2998 = system: HCC 2998
# OVCAR-8 = system: OVCAR-8
smiles,measurement,setting,value
O=C(C(Cl)=C(Nc1ccccc1)Nc1ccccc1)C(Cl)Cl,GI50,ACHN,27.5 µM (inactive)
same,GI50,NCI-H23,41.4 µM (inactive)
same,GI50,HL-60,17.4 µM (inactive)
same,GI50,RXF 393,14.6 µM (inactive)
same,GI50,NCI-H522,19.7 µM (inactive)
same,GI50,UO-31,33.6 µM (inactive)
same,GI50,MOLT-4,16 µM (inactive)
same,GI50,HCT-15,11 µM
same,GI50,NCI-H460,25.1 µM (inactive)
same,GI50,NCI/ADR-RES,40.6 µM (inactive)
same,GI50,HOP-62,15.5 µM (inactive)
same,GI50,Malme-3M,20.3 µM (inactive)
same,GI50,HT-29,21.2 µM (inactive)
same,GI50,A549,38.5 µM (inactive)
same,GI50,COLO 205,30.6 µM (inactive)
same,GI50,SW-620,18.8 µM (inactive)
same,GI50,DU-145,51.2 µM (inactive)
same,GI50,NCI-H226,39.1 µM (inactive)
same,GI50,OVCAR-3,23 µM (inactive)
same,GI50,IGROV-1,32.1 µM (inactive)
same,GI50,T47D,12.4 µM (inactive)
same,GI50,SK-MEL-5,14.9 µM (inactive)
same,GI50,MCF7,23.9 µM (inactive)
same,GI50,RPMI-8226,29.6 µM (inactive)
same,GI50,HOP-92,21.8 µM (inactive)
same,GI50,Hs-578T,> 100 µM (inactive)
same,GI50,KM12,39.1 µM (inactive)
same,GI50,SN12C,25.5 µM (inactive)
same,GI50,SR,16.5 µM (inactive)
same,GI50,UACC-62,18.6 µM (inactive)
same,GI50,MDA-MB-435,10.6 µM (inactive)
same,GI50,MDA-MB-231,40.5 µM (inactive)
same,GI50,K562,25.3 µM (inactive)
same,GI50,SF-295,34 µM (inactive)
same,GI50,PC-3,36.9 µM (inactive)
same,GI50,HCT-116,17.3 µM (inactive)
same,GI50,UACC-257,82.8 µM (inactive)
same,GI50,786-0,22.5 µM (inactive)
same,GI50,M14,16.8 µM (inactive)
same,GI50,CCRF-CEM,28.5 µM (inactive)
same,GI50,SK-OV-3,37.6 µM (inactive)
same,GI50,SNB-19,26.2 µM (inactive)
same,GI50,SK-MEL-28,33.2 µM (inactive)
same,GI50,SF-539,24.6 µM (inactive)
same,GI50,EKVX,22.6 µM (inactive)
same,GI50,TK-10,40.3 µM (inactive)
same,GI50,SF-268,31.7 µM (inactive)
same,GI50,OVCAR-4,36.1 µM (inactive)
same,GI50,BT-549,37.2 µM (inactive)
same,GI50,CAKI-1,18.8 µM (inactive)
same,GI50,LOX IMVI,13.2 µM (inactive)
same,GI50,A498,24.8 µM (inactive)
same,GI50,HCC 2998,19 µM (inactive)
same,GI50,OVCAR-8,17.3 µM (inactive)
